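1) Cells in 96-well plates. 2) Compound, 48 h, 5 concentrations. 3) Linear interpolation between surrounding doses. 4) Unreached endpoint = highest concentration. Abbreviation: GI50, concentration required for 50% inhibition of growth.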 Activity calls are given as the source filed them. Rule as the data show it: active = GI50 up to about 1.1 µM and inactive = higher.
Tests used:
Assay in all cases: inhibition of tumour cell growth, NCI panel, 48 h
SNB-19 = test system: SNB-19
NCI-H23 = test system: NCI-H23
ACHN = test system: ACHN
EKVX = test system: EKVX
COLO 205 = test system: COLO 205
M14 = test system: M14
TK-10 = test system: TK-10
OVCAR-5 = test system: OVCAR-5
UO-31 = test system: UO-31
NCI/ADR-RES = test system: NCI/ADR-RES
OVCAR-3 = test system: OVCAR-3
DU-145 = test system: DU-145
IGROV-1 = test system: IGROV-1
KM12 = test system: KM12
RPMI-8226 = test system: RPMI-8226
UACC-62 = test system: UACC-62
MDA-MB-231 = test system: MDA-MB-231
BT-549 = test system: BT-549
SK-MEL-2 = test system: SK-MEL-2
MDA-N = test system: MDA-N

Compound	GI50 (SNB-19)	GI50 (NCI-H23)	GI50 (ACHN)	GI50 (EKVX)	GI50 (COLO 205)	GI50 (M14)	GI50 (TK-10)	GI50 (OVCAR-5)	GI50 (UO-31)	GI50 (NCI/ADR-RES)	GI50 (OVCAR-3)	GI50 (DU-145)	GI50 (IGROV-1)	GI50 (KM12)	GI50 (RPMI-8226)	GI50 (UACC-62)	GI50 (MDA-MB-231)	GI50 (BT-549)	GI50 (SK-MEL-2)	GI50 (MDA-N)
CC1CC(C)(C)CC(OCCN2CCCCC2)(c2ccccc2)C1 (stereo unspecified)	12.9 µM (inactive)	10.3 µM (inactive)	15.9 µM (inactive)	5.51 µM (inactive)	7.71 µM (inactive)	3.21 µM (inactive)	13.3 µM (inactive)	4.19 µM (inactive)	7.16 µM (inactive)	14.4 µM (inactive)	10.4 µM (inactive)	6.61 µM (inactive)	13.2 µM (inactive)	7.35 µM (inactive)	4.51 µM (inactive)	15.6 µM (inactive)	11.4 µM (inactive)	12.7 µM (inactive)	17.8 µM (inactive)	
O=C1C=Cc2cscc21	78.2 µM (inactive)	21.2 µM (inactive)	34.5 µM (inactive)	46.5 µM (inactive)	47.4 µM (inactive)	26.4 µM (inactive)	42.5 µM (inactive)		26.2 µM (inactive)	28.8 µM (inactive)	21.5 µM (inactive)	34.3 µM (inactive)	32.4 µM (inactive)	71.4 µM (inactive)	20.4 µM (inactive)	> 100 µM (inactive)	31.8 µM (inactive)	53.7 µM (inactive)	79.1 µM (inactive)	
COc1cccc2c1NC(=O)Cc1c-2[nH]c2ccccc12		81.5 µM (inactive)	> 100 µM (inactive)	> 100 µM (inactive)	> 100 µM (inactive)	> 100 µM (inactive)	> 100 µM (inactive)	> 100 µM (inactive)	> 100 µM (inactive)	82.2 µM (inactive)	> 100 µM (inactive)	> 100 µM (inactive)	> 100 µM (inactive)	46.9 µM (inactive)	31.2 µM (inactive)	> 100 µM (inactive)	> 100 µM (inactive)		> 100 µM (inactive)	
Cc1ccc2nc(N/N=C/c3ccc(C)s3)cc(C)c2c1	12.9 µM (inactive)	7.98 µM (inactive)	11.7 µM (inactive)	5.7 µM (inactive)	3.79 µM (inactive)	10.2 µM (inactive)	8.97 µM (inactive)	10.1 µM (inactive)	9.82 µM (inactive)	12.3 µM (inactive)	6.24 µM (inactive)	11 µM (inactive)	6.87 µM (inactive)	4.76 µM (inactive)	3.61 µM (inactive)	10.6 µM (inactive)	16.1 µM (inactive)		19 µM (inactive)	7.8 µM (inactive)
CCOC(=O)COc1ccccc1/C=C1\CCC(CN(C)C)C1=O (stereo unspecified)	9.2 µM (inactive)	8.41 µM (inactive)	13.9 µM (inactive)	13.8 µM (inactive)	3.9 µM (inactive)	8.71 µM (inactive)	12.9 µM (inactive)	17.9 µM (inactive)	16.3 µM (inactive)	3.48 µM (inactive)	7.82 µM (inactive)		13.3 µM (inactive)	3.71 µM (inactive)	0.902 µM (active)	6.05 µM (inactive)			10.6 µM (inactive)	
O=C1NC(=N/c2ccccc2)/C(=N\c2ccccc2)N1c1ccccc1	17 µM (inactive)	16.7 µM (inactive)	16.9 µM (inactive)	16.7 µM (inactive)	14.8 µM (inactive)		16.9 µM (inactive)	18 µM (inactive)	16.5 µM (inactive)	15.5 µM (inactive)		12.4 µM (inactive)	16.6 µM (inactive)	15.6 µM (inactive)	27 µM (inactive)	12.7 µM (inactive)	20.8 µM (inactive)		15.1 µM (inactive)	12.3 µM (inactive)

Source: ChEMBL document CHEMBL1201862, “PubChem BioAssay data set” (2004)
